Laboratory results taken from patent publication US9840513B2 (AbbVie S.à.r.l., priority 2015, dated 2017).
pEC50: −log10 of the molar value.

Assays:
[1] = molecular target: T1, F508delCFTR cell surface expression in CFBE41o-F508delCFTR-HRP cells (Homo sapiens, UniProt P13569, DEL508-508); experiment: Cell Surface Expression-Horse Radish Peroxidase (CSE-HRP) Assay; assay type: cell-based; conditions: for pEC50: CFBE41o-F508delCFTR-HRP cells, 18-24 hours at 33° C., 8-point curve, highest concentration 20 μM; for Maximum % activity (%): maximum at any tested concentration, normalized to on-plate positive control (3 μM)
T1 construct: fused on or other part: Horseradish peroxidase (HRP) reporter inserted in the fourth exofacial (extracellular) loop of CFTR; expression is doxycycline-inducible
T1 sequence (P13569 with tags, fused parts or gaps DEL508-508 limits assumed): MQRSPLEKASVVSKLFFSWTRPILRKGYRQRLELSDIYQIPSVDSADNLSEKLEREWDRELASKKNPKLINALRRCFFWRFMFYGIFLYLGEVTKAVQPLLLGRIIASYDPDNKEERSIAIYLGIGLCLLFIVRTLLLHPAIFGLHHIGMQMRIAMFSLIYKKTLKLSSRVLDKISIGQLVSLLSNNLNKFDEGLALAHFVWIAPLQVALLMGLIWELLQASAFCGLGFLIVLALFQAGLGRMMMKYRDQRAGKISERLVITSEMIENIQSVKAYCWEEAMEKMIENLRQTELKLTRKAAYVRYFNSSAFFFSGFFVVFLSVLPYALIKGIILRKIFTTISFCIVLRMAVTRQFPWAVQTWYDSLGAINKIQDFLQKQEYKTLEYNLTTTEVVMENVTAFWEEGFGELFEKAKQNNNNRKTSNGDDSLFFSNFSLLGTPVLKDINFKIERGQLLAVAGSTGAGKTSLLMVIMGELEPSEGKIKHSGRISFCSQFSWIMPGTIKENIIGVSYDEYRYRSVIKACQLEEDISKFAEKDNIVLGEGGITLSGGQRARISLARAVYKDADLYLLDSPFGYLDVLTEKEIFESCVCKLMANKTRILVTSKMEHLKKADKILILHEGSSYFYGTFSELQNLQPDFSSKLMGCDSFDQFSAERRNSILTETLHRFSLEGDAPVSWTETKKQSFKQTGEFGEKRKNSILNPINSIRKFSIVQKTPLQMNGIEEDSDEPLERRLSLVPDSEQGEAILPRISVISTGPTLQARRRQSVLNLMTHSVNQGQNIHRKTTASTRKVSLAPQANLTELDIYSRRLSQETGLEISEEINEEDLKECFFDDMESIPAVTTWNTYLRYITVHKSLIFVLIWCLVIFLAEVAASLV
T1 sequence (P13569 919-1480 limits assumed, stated change not applied): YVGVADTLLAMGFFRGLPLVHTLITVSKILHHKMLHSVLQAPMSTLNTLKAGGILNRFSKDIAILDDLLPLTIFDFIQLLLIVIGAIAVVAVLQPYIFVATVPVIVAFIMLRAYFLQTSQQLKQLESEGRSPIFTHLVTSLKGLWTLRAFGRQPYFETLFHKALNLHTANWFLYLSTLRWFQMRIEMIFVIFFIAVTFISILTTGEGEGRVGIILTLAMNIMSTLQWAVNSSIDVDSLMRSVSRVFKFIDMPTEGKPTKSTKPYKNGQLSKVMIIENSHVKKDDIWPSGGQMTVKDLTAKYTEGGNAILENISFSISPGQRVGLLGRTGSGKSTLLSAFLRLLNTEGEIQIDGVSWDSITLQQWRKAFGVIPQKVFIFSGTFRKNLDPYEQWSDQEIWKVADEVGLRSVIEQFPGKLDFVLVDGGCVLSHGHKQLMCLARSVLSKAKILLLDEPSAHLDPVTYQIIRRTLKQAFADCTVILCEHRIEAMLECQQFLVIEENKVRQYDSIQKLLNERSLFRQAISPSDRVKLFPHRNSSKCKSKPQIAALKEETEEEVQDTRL
How it was run: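 CFBE41o- cells with HRP-tagged F508delCFTR, expression induced by 0.5 μg/mL doxycycline for 72 h at 37 °C, then compound for 18-24 h at 33 °C (8-point, 3-fold, top 20 μM). Surface HRP measured by luminol luminescence; % activity normalised to 3 μM positive-control corrector; EC50 from variable-slope sigmoidal fit, three replicate plates.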

[2] = molecular target: T2, F508delCFTR in primary hBE cells with F508del/F508del CFTR mutation (Homo sapiens, UniProt P13569, DEL508-508); experiment: Transepithelial Clamp Circuit on Human Bronchial Epithelial Cells Conductance Assay (hBE-TECC); assay type: cell-based; conditions: for pEC50: primary hBE cells F508del/F508del, 18-24 hours at 37° C., equivalent short circuit current, 6 concentrations; for Maximum % activity (%): relative to positive control (3 μM) coupled with control potentiator
T2 construct: cells isolated from CF patients with the homozygous mutation; endogenous in cells; host or cells: primary human bronchial epithelial (hBE) cells from F508del/F508del CF patients
T2 sequence (P13569 with tags, fused parts or gaps DEL508-508): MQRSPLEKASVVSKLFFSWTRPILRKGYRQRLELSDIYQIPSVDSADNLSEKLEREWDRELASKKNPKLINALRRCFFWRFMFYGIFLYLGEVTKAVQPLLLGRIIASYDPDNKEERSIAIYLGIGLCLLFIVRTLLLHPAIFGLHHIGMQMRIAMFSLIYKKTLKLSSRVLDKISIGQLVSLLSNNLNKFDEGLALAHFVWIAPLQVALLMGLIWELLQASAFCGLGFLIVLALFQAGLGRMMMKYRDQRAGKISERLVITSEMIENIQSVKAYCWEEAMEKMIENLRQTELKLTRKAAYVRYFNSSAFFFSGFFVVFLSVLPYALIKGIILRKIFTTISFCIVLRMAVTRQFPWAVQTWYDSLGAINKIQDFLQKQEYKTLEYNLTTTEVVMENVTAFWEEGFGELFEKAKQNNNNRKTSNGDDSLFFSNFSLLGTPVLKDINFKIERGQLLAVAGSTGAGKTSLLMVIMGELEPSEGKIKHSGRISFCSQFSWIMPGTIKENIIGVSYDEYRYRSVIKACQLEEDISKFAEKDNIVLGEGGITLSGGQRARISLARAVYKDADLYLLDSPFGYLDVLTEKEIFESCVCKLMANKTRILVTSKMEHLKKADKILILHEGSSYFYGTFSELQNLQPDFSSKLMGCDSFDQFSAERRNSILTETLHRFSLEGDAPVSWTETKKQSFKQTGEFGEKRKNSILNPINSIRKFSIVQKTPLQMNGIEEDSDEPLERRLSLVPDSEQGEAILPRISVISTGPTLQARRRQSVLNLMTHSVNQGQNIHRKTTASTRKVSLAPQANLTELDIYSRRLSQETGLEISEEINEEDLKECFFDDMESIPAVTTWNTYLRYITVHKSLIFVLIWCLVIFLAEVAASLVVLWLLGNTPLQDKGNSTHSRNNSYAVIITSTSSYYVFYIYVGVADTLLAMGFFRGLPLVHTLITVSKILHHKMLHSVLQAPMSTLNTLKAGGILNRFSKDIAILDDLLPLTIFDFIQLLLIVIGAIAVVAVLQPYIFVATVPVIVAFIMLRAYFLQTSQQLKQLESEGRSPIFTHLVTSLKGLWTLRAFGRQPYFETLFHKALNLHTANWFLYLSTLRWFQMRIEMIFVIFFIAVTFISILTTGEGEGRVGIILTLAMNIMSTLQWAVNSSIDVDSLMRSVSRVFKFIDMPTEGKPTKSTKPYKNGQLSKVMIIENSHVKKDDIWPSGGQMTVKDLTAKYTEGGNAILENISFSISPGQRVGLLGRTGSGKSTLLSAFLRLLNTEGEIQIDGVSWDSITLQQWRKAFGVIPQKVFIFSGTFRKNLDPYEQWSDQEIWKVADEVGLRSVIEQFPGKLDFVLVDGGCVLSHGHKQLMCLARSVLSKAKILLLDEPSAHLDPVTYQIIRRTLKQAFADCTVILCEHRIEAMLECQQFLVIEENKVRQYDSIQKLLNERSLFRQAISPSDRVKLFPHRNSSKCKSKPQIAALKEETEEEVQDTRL
How it was run: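 Primary F508del/F508del hBE cells grown 35 days at air-liquid interface, treated basolaterally with correctors 18-24 h at 37° C. Ieq (Vt/Rt) at 36.5° C, pH 7.4, after benzamil, forskolin 10 μM, control potentiator, bumetanide; 6 concentrations normalized to DMSO and 3 μM positive-control corrector, EC50 by 4-parameter fit.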

Structure (SMILES)	pEC50 [1]	Maximum % activity (%) [1]	pEC50 [2]	Maximum % activity (%) [2]
C[C@]1(C(=O)N[C@@H]2C[C@H]([C@H]3CC[C@H](C(=O)O)CC3)Oc3cc(OC(F)(F)F)ccc32)CCc2cc3c(cc21)OC(F)(F)O3 [Example 167, trans-4-[(2R,4R)-4-{[(5S)-2,2-difluoro-5-methyl-6,7-dihydro-2H,5H-indeno[5,6-d][1,3]dioxole-5-carbonyl]amino}-7-(trifluoromethoxy)-3,4-dihydro-2H-1-benzopyran-2-yl]cyclohexane-1-carboxylic acid]	7.28	135%	7.06	112%
COc1ccc2c(c1)O[C@@H]([C@H]1CC[C@H](C(=O)O)CC1)C[C@H]2NC(=O)[C@@]1(C)CCc2cc3c(cc21)OC(F)(F)O3 [Example 168, trans-4-[(2R,4R)-4-{[(5S)-2,2-difluoro-5-methyl-6,7-dihydro-2H,5H-indeno[5,6-d][1,3]dioxole-5-carbonyl]amino}-7-methoxy-3,4-dihydro-2H-1-benzopyran-2-yl]cyclohexane-1-carboxylic acid]	6.79	127%	7.37	101%
CC1(c2cc3cc(NC(=O)[C@@]4(C)COc5cc6c(cc54)OC(F)(F)O6)c(F)cc3n2C[C@@H](O)CO)COC1 [Example 171, (7R)—N-{1-[(2R)-2,3-dihydroxypropyl]-6-fluoro-2-(3-methyloxetan-3-yl)-1H-indol-5-yl}-2,2-difluoro-7-methyl-6,7-dihydro-2H-furo[2,3-f][1,3]benzodioxole-7-carboxamide]	6.18	92%	6.45	45%
C[C@]1(C(=O)Nc2cc3cc(C4(CO)CCC4)[nH]c3cc2F)COc2cc3c(cc21)OC(F)(F)O3 [Example 172, (7R)-2,2-difluoro-N-{6-fluoro-2-[1-(hydroxymethyl)cyclobutyl]-1H-indol-5-yl}-7-methyl-6,7-dihydro-2H-furo[2,3-f][1,3]benzodioxole-7-carboxamide]	6.02	210%	7.01	50%
COc1ccc2c(c1)O[C@@H](c1ccc(CO)cn1)C[C@H]2NC(=O)[C@@]1(C)COc2cc3c(cc21)OC(F)(F)O3 [Example 174, (7R)-2,2-difluoro-N-{(2R,4R)-2-[5-(hydroxymethyl)pyridin-2-yl]-7-methoxy-3,4-dihydro-2H-1-benzopyran-4-yl}-7-methyl-6,7-dihydro-2H-furo[2,3-f][1,3]benzodioxole-7-carboxamide]	6.92	118%	7.82	94%
COc1ccc2c(c1)O[C@@H](c1cnc(C(O)CO)cn1)C[C@H]2NC(=O)[C@@]1(C)COc2cc3c(cc21)OC(F)(F)O3 (stereo partly drawn) [Example 175, (7R)—N-{(2R,4R)-2-[5-(1,2-dihydroxyethyl)pyrazin-2-yl]-7-methoxy-3,4-dihydro-2H-1-benzopyran-4-yl}-2,2-difluoro-7-methyl-6,7-dihydro-2H-furo[2,3-f][1,3]benzodioxole-7-carboxamide]	6.66	139%	7.37	107%
C[C@]1(C(=O)N[C@@H]2C[C@H](c3ccc(CO)cn3)Oc3cc(OC(F)(F)F)ccc32)COc2cc3c(cc21)OC(F)(F)O3 [Example 177, (7R)-2,2-difluoro-N-[(2R,4R)-2-[5-(hydroxymethyl)pyridin-2-yl]-7-(trifluoromethoxy)-3,4-dihydro-2H-1-benzopyran-4-yl]-7-methyl-6,7-dihydro-2H-furo[2,3-f][1,3]benzodioxole-7-carboxamide]	7.05	127%	7.89	99%
COc1ccc2c(c1)O[C@@H](c1ccc(CO)nc1)C[C@H]2NC(=O)[C@@]1(C)COc2cc3c(cc21)OC(F)(F)O3 [Example 178, (7R)-2,2-difluoro-N-{(2R,4R)-2-[6-(hydroxymethyl)pyridin-3-yl]-7-methoxy-3,4-dihydro-2H-1-benzopyran-4-yl}-7-methyl-6,7-dihydro-2H-furo[2,3-f][1,3]benzodioxole-7-carboxamide]	6.54	158%	7.18	108%
CC(C)(CO)c1cc2cc(NC(=O)[C@@]3(C)COc4cc5c(cc43)OC(F)(F)O5)c(F)cc2n1C[C@@H](O)CC#N [Example 179, (7R)—N-{1-[(2S)-3-cyano-2-hydroxypropyl]-6-fluoro-2-(1-hydroxy-2-methylpropan-2-yl)-1H-indol-5-yl}-2,2-difluoro-7-methyl-6,7-dihydro-2H-furo[2,3-f][1,3]benzodioxole-7-carboxamide]	6.55	108%	6.83	70%
COc1ccc2c(c1)O[C@@H](c1ccc(=O)[nH]n1)C[C@H]2NC(=O)[C@@]1(C)COc2cc3c(cc21)OC(F)(F)O3 [Example 197, (7R)-2,2-difluoro-N-[(2R,4R)-7-methoxy-2-(6-oxo-1,6-dihydropyridazin-3-yl)-3,4-dihydro-2H-1-benzopyran-4-yl]-7-methyl-6,7-dihydro-2H-furo[2,3-f][1,3]benzodioxole-7-carboxamide]	7.40	130%	8.22	105%
CC1(C)COC(C)(C)c2c1n(C[C@@H](O)CO)c1cc(F)c(NC(=O)[C@@]3(C)COc4cc5c(cc43)OC(F)(F)O5)cc21 [Example 206, (7R)—N-{5-[(2R)-2,3-dihydroxypropyl]-7-fluoro-1,1,4,4-tetramethyl-1,3,4,5-tetrahydropyrano[4,3-b]indol-8-yl}-2,2-difluoro-7-methyl-6,7-dihydro-2H-furo[2,3-f][1,3]benzodioxole-7-carboxamide]	5.71	84%	5.99	79%
COc1ccc2c(c1)O[C@@H](c1ccc(C(=O)N3CCN(CCO)CC3)cn1)C[C@H]2NC(=O)[C@@]1(C)COc2cc3c(cc21)OC(F)(F)O3 [Example 213, (7R)-2,2-difluoro-N-[(2R,4R)-2-{5-[4-(2-hydroxyethyl)piperazine-1-carbonyl]pyridin-2-yl}-7-methoxy-3,4-dihydro-2H-1-benzopyran-4-yl]-7-methyl-6,7-dihydro-2H-furo[2,3-f][1,3]benzodioxole-7-carboxamide]	7.10	117%	7.39	82%
COc1ccc2c(c1)O[C@@H](c1ccc(C(=O)NCC(C)(C)O)cn1)C[C@H]2NC(=O)[C@@]1(C)COc2cc3c(cc21)OC(F)(F)O3 [Example 214, 6-[(2R,4R)-4-{[(7R)-2,2-difluoro-7-methyl-6,7-dihydro-2H-furo[2,3-f][1,3]benzodioxole-7-carbonyl]amino}-7-methoxy-3,4-dihydro-2H-1-benzopyran-2-yl]-N-(2-hydroxy-2-methylpropyl)pyridine-3-carboxamide]	7.22	114%	7.80	88%
